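Five compound concentrations were applied to cells in 96-well plates for 48 hours; endpoints were derived by simple linear interpolation of the resulting dose-response curve. GI50 = concentration required for 50% inhibition of growth. TGI marks complete inhibition of growth.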
Legend:
Test in all cases: growth of human tumour cells (NCI), 48 h
[1] = test system: BT-549 breast
[2] = test system: K-562 leukemia
[3] = test system: LOX IMVI melanoma
[4] = test system: MALME-3M melanoma
[5] = test system: MDA-MB-231 breast
[6] = test system: MOLT-4 leukemia
[7] = test system: NCI-H460 lung
[8] = test system: OVCAR-5 ovarian
[9] = test system: SN12C renal
[10] = test system: TK-10 renal

Compound | GI50 [1] [µM] | TGI [1] [µM] | GI50 [2] [µM] | TGI [2] [µM] | GI50 [3] [µM] | TGI [3] [µM] | GI50 [4] [µM] | TGI [4] [µM] | GI50 [5] [µM] | TGI [5] [µM] | GI50 [6] [µM] | TGI [6] [µM] | GI50 [7] [µM] | TGI [7] [µM] | GI50 [8] [µM] | TGI [8] [µM] | GI50 [9] [µM] | TGI [9] [µM] | GI50 [10] [µM] | TGI [10] [µM]
CCOc1cc(C(C)(C)C)ccc1C1=N[C@H](c2ccc(Cl)cc2)[C@H](c2ccc(Cl)cc2)N1C(=O)N1CCN(CC#Cc2cccc3c2CN([C@@H]2CCC(=O)NC2=O)C3=O)CC1 | 0.317 | 19.8 | 2.66 | > 100 | 2.05 | 22.7 | 0.0331 | 0.778 | 0.0192 | 0.0797 | 0.019 | > 100 | 2.38 | 11.7 | 4.5 | > 54.3 | 1.31 | > 100 | 2.41 | 44
COc1ccc2c(c1)NC1=C(C(=O)OC1)C2c1cc(OC)c(OC)c(OC)c1 (configuration not stated) | < 0.01 | < 0.01 | < 0.01 | > 100 | < 0.01 | > 100 | 26 | > 100 | < 0.01 | < 0.01 | < 0.01 | > 100 | < 0.01 | > 100 | < 0.01 | > 100 | < 0.01 | > 100 | < 0.01 | > 100
C=C(C)C1CC2(C)C(C)CC(O)CC2C(OC(=O)C=C(C)C)C1O (configuration not stated) |  | > 100 |  | > 100 |  | > 100 |  | > 100 |  | > 100 |  | 83.1 |  | 57.2 |  | > 100 |  | > 100 |  | > 100
N[C@H](C(=O)O)[C@@H]1CC(Cl)=NO1 | 7.4 | > 1000 | 7.16 | > 944 | 3.28 | > 1000 |  | 542 |  | > 1000 | 5.21 | > 806 | 3.22 | > 1000 |  | 648 | 53.7 | > 1000 | 34.5 | > 609
CN(C)CCC(=O)N1C/C(=C\c2ccc(Cl)c(Cl)c2)C(=O)/C(=C/c2ccc(Cl)c(Cl)c2)C1 |  | 1.7 |  | 0.572 |  | 0.278 |  | 1.51 |  | 0.799 |  | 1.7 |  | 1.38 |  | 1.69 |  | 0.44 |  | 1.58

Reference: PubChem BioAssay (NCI)
